Assay results from patent US6337325B1, “Combined preparation for the therapy of immune diseases” (Hoechst Aktiengesellschaft, priority 1994, dated 2002).
Where two headings read alike, the source gives them in different places.

Assays:
[1] = test system: patient with pronounced psoriasis; assay: Topical application to a single patient with pronounced psoriasis, subjective symptom scores; format: in vivo, human; conditions: after a 6-week application
Protocol: The effect of the topical application of a combination according to the invention to a single patient with pronounced psoriasis was studied in a parallel comparison. For this purpose the test substances pentoxifylline and diltiazem, dissolved in 30 ml of polypropylene glycol/ethanol/water (1:1:1. v/v), were incorporated, individually or together, in a final concentration of 2% (pentoxifylline) or 1% (diltiazem), into a commercially available creamy skin care product (Nivea lotion), ultimately giving the following 4 different formulations:
A) lotion without test substance (=vehicle control)
B) lotion with 2% of pentoxifylline
C) lotion with 1% of diltiazem
D) lotion with 2% of pentoxifylline+1% of diltiazem
Twice a day for 6 weeks, these 4 formulations were applied locally, with rubbing, to areas of skin on the patient's trunk which were affected by pronounced symptoms of psoriasis and had previously been precisely defined, particular care being taken to ensure that the same formulation was always applied to the same area of skin. The therapeutic result was monitored visually and evaluated by means of the following subjective scores: […]

[2] = test system: PHA-induced release of TNFα from peripheral blood mononuclear cells; assay: Inhibition of PHA-induced release of TNFα from PBMC (L929 cytotoxicity read-out); format: cell-based; conditions: Homo sapiens
Protocol: (§1) For all the in vitro tests, peripheral blood mononuclear cells (PBMC) were obtained from the blood of healthy donors by density gradient centrifugation in Ficoll-Hypaque (Pharmacia, Uppsala). This isolation step separated monocytes and lymphocytes from the other blood constituents. Further working-up of this PBMC fraction was carried out in accordance Ad with the requirements of the test preparations described below.
(§2) The resulting PBMC were incubated on microtiter plates together with phythemagglutinin (PHA, 5 μg/ml). […] Incubation was carried out at 37° C. in 5% CO2 with protection from the light. After 20 hours (h) (TNFα determination), 24 h (IL-2 determination) or 120 h (IFNγ determination), the cell supernatants were tested for cytokine release. TNFα was determined via its cytotoxicity to L929 cells, IL-2 was quantified via the proliferation of CTL-L6 cells and IFNγ was determined using a sandwich ELISA.
The following test examined the dependence of the inhibition of PHA-induced cytokine formation on the type of so-called “calcium antagonist” added.

[3] = test system: PHA-induced release of IL-2 from peripheral blood mononuclear cells; assay: Inhibition of PHA-induced release of IL-2 from PBMC (CTL-L6 proliferation read-out); format: cell-based; conditions: Homo sapiens
Protocol: as §1, §2

[4] = test system: T lymphocytes stimulated via CD28/PMA; assay: T lymphocyte proliferation (3H-thymidine), stimulation via CD28/PMA; format: cell-based, human
Protocol: as §1
(§3) The PBMC fraction was further fractionated to give pure T lymphocytes. This was done using Lympho-KWIK-T, a mixture of monoclonal antibodies from anti-monocytes and anti-B cells and complement, together with a mixture of monoclonal anti-NK and anti-monocyte antibodies with Leu 11 b (anti-CD16, IgM) and Leu 7 (anti-CD57, IgM) (One Lambda Inc., Los Angeles, Calif., USA). The isolation and purification of the T lymphocytes from the PBMC fraction was effected by means of the following process steps:
(§4) Monocytes are removed by cold agglutination.
30×10^6 of the cells obtained are incubated with 0.8 ml of Lympho-KWIK-T for 1 hour at 37° C.
The cells are washed three times and then incubated for 30 minutes at 4° C. with the mixture of monoclonal anti-NK and anti-monocyte antibodies.
The cells are washed once and re-incubated with 0.8 ml of Lympho-KWIK-T for 1 hour at 37° C.
After 64 h of incubation the cells were treated in each case with 1 μCi of ^3H-thymidine; 8 h later they were collected on glass fiber filters and the incorporated radioactivity was measured in a β counter.
The percentage inhibition of the T lymphocyte proliferation by the test substances was compared with a control not containing test substance, subtracting a basal value without monoclonal antibodies. The mean value from 4 parallel preparations was used for the evaluation.

[5] = test system: T lymphocytes stimulated via CD3/PMA; assay: T lymphocyte proliferation (3H-thymidine), stimulation via CD3/PMA; format: cell-based; conditions: Homo sapiens, 72 h
Protocol: as §1, §3, §4
30×10^6 of the cells obtained are incubated with 0.8 ml of Lympho-KWIK-T for 1 hour at 37° C. […]
After 64 h of incubation the cells were treated in each case with 1 μCi of ^3H-thymidine; 8 h later they were collected on glass fiber filters and the incorporated radioactivity was measured in a β counter. […]

[6] = test system: PHA-induced release of IFNγ from peripheral blood mononuclear cells; assay: Inhibition of PHA-induced release of IFNγ from PBMC (sandwich ELISA); format: cell-based; conditions: Homo sapiens, PHA 5 μg/ml, 120 h
Protocol: as §1, §2

Row | SMILES | psoriasis symptoms relative to the initial situation, in words [1] | inhibition at 10 µM ([2]; Table 2, test substance alone, 10 μmol/l, read-out: percentage inhibition of the PHA-induced release of TNFα, test substance alone) [%] | inhibition at 0.1 µM ([3]; read-out: IL-2 % inhibition, 0.1 μmol/l final concentration, PHA 5 μg/ml, 24 h) [%] | inhibition at 0.1 µM ([4]; Homo sapiens, T-lymphocyte, 0.1 μmol/l, T lymphocytes, 72 h) [%] | activity on T lymphocyte activation via the CD28-dependent mechanism, in words ([4]; single substance, stimulation via CD28) | inhibition at 0.1 µM ([5]; 0.1 μmol/l) [%] | inhibition at 0.1 µM ([2]; 0.1 μmol/l final concentration, PHA 5 μg/ml, 20 h) [%] | inhibition at 0.1 µM ([6]; 0.1 μmol/l final concentration) [%] | inhibition at 50 µM ([3]; read-out: IL-2 % inhibition, 50 μmol/l final concentration, PHA 5 μg/ml, 24 h) [%] | inhibition at 40 µM ([4]; Homo sapiens, T-lymphocyte, 40 μmol/l, T lymphocytes, 72 h) [%] | inhibition at 40 µM ([5]; 40 μmol/l) [%] | inhibition at 50 µM ([2]; 50 μmol/l final concentration, PHA 5 μg/ml, 20 h, read-out: TNFα % inhibition) [%] | inhibition at 50 µM ([2]; Table 2, pentoxifylline alone, 50 μmol/l, read-out: percentage inhibition of the PHA-induced release of TNFα, pentoxifylline) [%] | inhibition at 50 µM ([6]; 50 μmol/l final concentration) [%]
1 | COc1ccc([C@@H]2Sc3ccccc3N(CCN(C)C)C(=O)[C@@H]2OC(C)=O)cc1 [Diltiazem, diltiazem] | practically no visible difference | 39 ± 13 |  |  |  |  |  |  |  |  |  |  |  | 
2 | CCCC(=O)Nc1ncnc2c1ncn2[C@@H]1O[C@@H]2COP(=O)(O)O[C@H]2[C@H]1OC(=O)CCC [db-cAMP, dibutyryl-cAMP] |  |  | 12 ± 4 | 11 ± 6 | practically inactive | 16 ± 6 | 31 ± 13 | 15 ± 8 |  |  |  |  |  | 
3 | CC(=O)CCCCn1c(=O)c2c(ncn2C)n(C)c1=O [pentoxifylline] | improved only moderately |  |  |  |  |  |  |  | 14 ± 9 | 28 ± 8 | 21 ± 7 | 28 ± 10 | 28 ± 10 | 20 ± 9
